Our source for the IC50 values is US8273773B2 (priority 2008, dated 2012).
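Further: recombinant His-tagged enzyme from E. coli, radiolabeled nucleotide incorporation into acid-insoluble RNA read by scintillation after filtration, no-enzyme background subtracted, activity relative to positive control.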

The first experiment concerns the target T1, HCV polymerase (NS5B570n-Con1) (Hepatitis C virus genotype 1b, UniProt Q9WMX2).
T1 construct: contains a 21 amino acid deletion at the C-terminus relative to the full-length HCV polymerase; 6-histidine (N); made in house; host or cells: E. coli strain BL21(DE) pLysS (pET17b)
Put plainly: biochemical. The arrangement: species or system HCV Con1 strain. The conditions noted are these: IC50 HCV NS5B RNA Polymerase Assay (values with asterisk), values with asterisk: cIRES RNA template, 3 nM NS5B570n-Con1.
For the compound `CCS(=O)(=O)Nc1ccc(/C=C/c2cc(-c3cc(F)c[nH]c3=O)cc(C(C)(C)C)c2OC)cc1` [I-228, Ethanesulfonic acid (4-{(E)-2-[3-tert-butyl-5-(5-fluoro-2-oxo-1,2-dihydro-pyridin-3-yl)-2-methoxy-phenyl]-vinyl}-phenyl)-amide], the half-inhibitory concentration (IC50) is 5 nM.
On the same count and under the same terms, next, `COc1c(/C=C/c2ccc(NS(=O)(=O)CC(F)(F)F)cn2)cc(-c2cc(F)c[nH]c2=O)cc1C(C)(C)C` [I-229, 2,2,2-Trifluoro-ethanesulfonic acid (6-{(E)-2-[3-tert-butyl-5-(5-fluoro-2-oxo-1,2-dihydro-pyridin-3-yl)-2-methoxy-phenyl]-vinyl}-pyridin-3-yl)-amide]: 2 nM.
Same read-out and setting: next, `COc1c(/C=C/c2ccc(NS(=O)(=O)CCCN3CCCC3)cc2)cc(-c2cc(F)c[nH]c2=O)cc1C(C)(C)C` [I-230, 3-Pyrrolidin-1-yl-propane-1-sulfonic acid (4-{(E)-2-[3-tert-butyl-5-(5-fluoro-2-oxo-1,2-dihydro-pyridin-3-yl)-2-methoxy-phenyl]-vinyl}-phenyl)-amide]: 6 nM.
In turn, `COc1c(/C=C/c2ccc(NS(=O)(=O)CCCN3CCOCC3)cc2)cc(-c2cc(F)c[nH]c2=O)cc1C(C)(C)C` [I-231, 3-Morpholin-4-yl-propane-1-sulfonic acid (4-{(E)-2-[3-tert-butyl-5-(5-fluoro-2-oxo-1,2-dihydro-pyridin-3-yl)-2-methoxy-phenyl]-vinyl}-phenyl)-amide] registered an IC50 of 4 nM.
`COc1c(/C=C/c2ccc(NS(=O)(=O)CCN3CCCC3)cc2)cc(-c2cc(F)c[nH]c2=O)cc1C(C)(C)C` [I-232, 2-Pyrrolidin-1-yl-ethanesulfonic acid (4-{(E)-2-[3-tert-butyl-5-(5-fluoro-2-oxo-1,2-dihydro-pyridin-3-yl)-2-methoxy-phenyl]-vinyl}-phenyl)-amide] yielded an IC50 of 1 nM.
Consider `COc1c(/C=C/c2ccc(NS(=O)(=O)CCN3CCOCC3)cc2)cc(-c2cc(F)c[nH]c2=O)cc1C(C)(C)C` [I-233], for which it took 1 nM to reach half-maximal inhibition (IC50).
On the same count and under the same terms, next, `COc1c(/C=C/c2ccc(NS(=O)(=O)CCCN3CCCC3)cc2)cc(-c2ccc[nH]c2=O)cc1C(C)(C)C` [I-234, 3-Pyrrolidin-1-yl-propane-1-sulfonic acid (4-{(E)-2-[3-tert-butyl-2-methoxy-5-(2-oxo-1,2-dihydro-pyridin-3-yl)-phenyl]-vinyl}-phenyl)-amide]: 4 nM; `COc1c(/C=C/c2ccc(NS(=O)(=O)CCCN3CCCC3)cc2)cc(-c2ccc(C)[nH]c2=O)cc1C(C)(C)C` [I-235, 3-Pyrrolidin-1-yl-propane-1-sulfonic acid (4-{(E)-2-[3-tert-butyl-2-methoxy-5-(6-methyl-2-oxo-1,2-dihydro-pyridin-3-yl)-phenyl]-vinyl}-phenyl)-amide]: 12 nM; `COc1c(/C=C/c2ccc(NS(C)(=O)=O)cc2F)cc(-c2cc(F)c[nH]c2=O)cc1C(C)(C)C` [I-236, N-(4-{(E)-2-[3-tert-Butyl-5-(5-fluoro-2-oxo-1,2-dihydro-pyridin-3-yl)-2-methoxy-phenyl]-vinyl}-3-fluoro-phenyl)-methanesulfonamide]: 1 nM.
Turning to `COc1c(/C=C/c2ccccc2F)cc(-c2ccc[nH]c2=O)cc1C(C)(C)C` [I-237, 3-{3-tert-Butyl-5-[(E)-2-(2-fluoro-phenyl)-vinyl]-4-methoxy-phenyl}-1H-pyridin-2-one], the IC50 came to 13 nM.
On to `COc1c(/C=C/c2ccccc2C#N)cc(-c2ccc[nH]c2=O)cc1C(C)(C)C` [I-238, 2-{(E)-2-[3-tert-Butyl-2-methoxy-5-(2-oxo-1,2-dihydro-pyridin-3-yl)-phenyl]-vinyl}-benzonitrile], for which the IC50 came to 2 nM.
Same read-out and setting: next, `COc1c(/C=C/c2ccccc2C(F)(F)F)cc(-c2ccc[nH]c2=O)cc1C(C)(C)C` [I-239, 3-{3-tert-Butyl-4-methoxy-5-[(E)-2-(2-trifluoromethyl-phenyl)-vinyl]-phenyl}-1H-pyridin-2-one]: 8 nM; `COc1c(/C=C/c2ccncc2)cc(-c2ccc[nH]c2=O)cc1C(C)(C)C` [I-240, 3-[3-tert-Butyl-4-methoxy-5-((E)-2-pyridin-4-yl-vinyl)-phenyl]-1H-pyridin-2-one]: 5 nM; `COc1c(/C=C/c2ccccn2)cc(-c2ccc[nH]c2=O)cc1C(C)(C)C` [I-241, 3-[3-tert-Butyl-4-methoxy-5-((E)-2-pyridin-2-yl-vinyl)-phenyl]-1H-pyridin-2-one]: 3 nM.
Same read-out and setting: under `COC(=O)c1ccccc1/C=C/c1cc(-c2ccc[nH]c2=O)cc(C(C)(C)C)c1OC` [I-242, 2-{(E)-2-[3-tert-Butyl-2-methoxy-5-(2-oxo-1,2-dihydro-pyridin-3-yl)-phenyl]-vinyl}-benzoic acid methyl ester] stands 2 nM.
In turn, `COc1c(/C=C/c2ccccc2S(C)(=O)=O)cc(-c2ccc[nH]c2=O)cc1C(C)(C)C` [I-244, 3-{3-tert-Butyl-5-[(E)-2-(2-methanesulfonyl-phenyl)-vinyl]-4-methoxy-phenyl}-1H-pyridin-2-one] had an IC50 of 1 nM.
On the same count and under the same terms, next, `COc1c(/C=C/c2ccncc2C#N)cc(-c2ccc[nH]c2=O)cc1C(C)(C)C` [I-245, 4-{(L)-2-[3-tert-Butyl-2-methoxy-5-(2-oxo-1,2-dihydro-pyridin-3-yl)-phenyl]-vinyl}-nicotinonitrile]: 1 nM.
`COc1c(/C=C/c2ccccc2C(=O)O)cc(-c2ccc[nH]c2=O)cc1C(C)(C)C` [I-246, 2-{(E)-2-[3-tert-Butyl-2-methoxy-5-(2-oxo-1,2-dihydro-pyridin-3-yl)-phenyl]-vinyl}-benzoic acid] came in with an IC50 of 1 nM.
The same measure, in the same setting: under `CCOc1c(/C=C/c2ccc(NS(C)(=O)=O)cc2)cc(-c2ccc[nH]c2=O)cc1C(C)(C)C` [I-249] stands 11 nM; under `COCCOc1c(/C=C/c2ccc(NS(C)(=O)=O)cc2)cc(-c2ccc[nH]c2=O)cc1C(C)(C)C` [I-250], 23 nM.
Still for that read-out and setting: next, `COc1c(NC(=O)c2ccc(NCC(F)(F)F)c(F)c2)cc(-c2ccc[nH]c2=O)cc1C(C)(C)C` [I-251, N-[3-tert-Butyl-2-methoxy-5-(2-oxo-1,2-dihydro-pyridin-3-yl)-phenyl]-3-fluoro-4-(2,2,2-trifluoro-ethylamino)-benzamide]: 2 nM.

Still in this experiment, the particulars now being: IC50 HCV NS5B RNA Polymerase Assay, values without asterisk; 20 nM NS5B570n-Con1 enzyme, 20 nM cIRES RNA template.
Consider `COc1c(NC(=O)c2ccc(N)nc2)cc(-c2ccc[nH]c2=O)cc1C(C)(C)C` [I-247, 6-Amino-N-[3-tert-butyl-2-methoxy-5-(2-oxo-1,2-dihydro-pyridin-3-yl)-phenyl]-nicotinamide], for which the IC50 worked out at 22 nM.
On the same count and under the same terms, next, `COc1c(NC(=O)c2ccc(NCC(F)(F)F)nn2)cc(-c2ccc[nH]c2=O)cc1C(C)(C)C` [I-248, 6-(2,2,2-Trifluoro-ethylamino)-pyridazine-3-carboxylic acid [3-tert-butyl-2-methoxy-5-(2-oxo-1,2-dihydro-pyridin-3-yl)-phenyl]-amide]: 19 nM; `COc1c(NC(=O)c2ccc(O)cc2F)cc(-c2ccc[nH]c2=O)cc1C(C)(C)C` [I-252, N-[3-tert-Butyl-2-methoxy-5-(2-oxo-1,2-dihydro-pyridin-3-yl)-phenyl]-2-fluoro-4-hydroxy-benzamide]: 38 nM; `COc1c(NC(=O)c2ccc(NCC(F)(F)F)cc2)cc(-c2ccc[nH]c2=O)cc1C(C)(C)C` [I-253, N-[3-tert-Butyl-2-methoxy-5-(2-oxo-1,2-dihydro-pyridin-3-yl)-phenyl]-4-(2,2,2-trifluoro-ethylamino)-benzamide]: 2 nM.
